The values below are quoted from earlier work in US9374996B2, “Agroformulation comprising copolymer of acrylic acid, poly(alkylene glycol) (meth)acrylate, and alkyl (meth)acrylate” (priority 2012, dated 2016).

SMILES strings stand for the structures. Converted amounts (≈) assume the structure as drawn.

For the series the following is noted: at 20° C.

For `Cn1cc(C(=O)Nc2ccccc2-c2cc(F)c(F)c(F)c2)c(C(F)F)n1` [fluxapyroxad], the solubility in water was 3.88 µg/mL (≈ 10.2 µM).
